Assay results: patent publication US20250276983A1, “COMPOUNDS AND METHODS FOR MODULATING HER2” (IAMBIC THERAPEUTICS, INC., priority 2022, published 2025)
Read-outs that look alike come from different tables or passages of the source.

What was measured:
Format in all cases: cell-based
BaF3_HER2YVMA cells = test: Cell growth inhibition assay, BaF3_HER2YVMA; details: BaF3_HER2YVMA cells, 3 days treatment, CellTiterGlo 2.0, read-out: HER2-YVMA IC50 (nM), cell growth inhibition
BaF3_HER2WT cells = test: Cell growth inhibition assay, BaF3_HER2WT; details: 3 days treatment, CellTiterGlo 2.0, read-out: HER2 WT IC50 (nM), cell growth inhibition
BaF3_EGFRWT cells = test: Cell growth inhibition assay, BaF3_EGFRWT; details: 80 ng/mL recombinant human EGF, 3 days treatment, CellTiterGlo 2.0, read-out: EGFR WT IC50 (nM), cell growth inhibition

Row | IC50 (BaF3_HER2YVMA cells; 72 h) | IC50 (BaF3_HER2WT cells; 72 h) | IC50 (BaF3_EGFRWT cells; 72 h) | IC50 (BaF3_HER2YVMA cells) | IC50 (BaF3_HER2WT cells) | IC50 (BaF3_EGFRWT cells) | SMILES
1 | < 200 nM | < 200 nM | 1500 to 5000 nM |  |  |  | CNC/C=C/C(=O)N1CCC(c2ccn3ncnc(Nc4ccc(Oc5ccn6ncnc6c5)c(C)c4)c23)CC1 [Example 177, (E)-1-(4-(4-((4-([1,2,4]triazolo[1,5-a]pyridin-7-yloxy)-3-methylphenyl)amino)pyrrolo[2,1-f][1,2,4]triazin-5-yl)piperidin-1-yl)-4-(methylamino)but-2-en-1-one]
2 | < 200 nM | < 200 nM | 1500 to 5000 nM |  |  |  | CO[C@@H]1CN(C/C=C/C(=O)N2CC(c3ccn4ncnc(Nc5ccc(Oc6ccc7c(c6)ncn7C)c(C)c5)c34)C2)C[C@H]1OC [Example 166, (E)-4-((3R,4R)-3,4-dimethoxypyrrolidin-1-yl)-1-(3-(4-((3-methyl-4-((1-methyl-1H-benzo[d]imidazol-5-yl)oxy)phenyl)amino)pyrrolo[2,1-f][1,2,4]triazin-5-yl)azetidin-1-yl)but-2-en-1-one]
3 |  | < 200 nM | 1500 to 5000 nM | < 200 nM |  |  | Cc1cc(Nc2ncnn3ccc(C4CCN(C(=O)/C=C/CN(C)C)C4)c23)ccc1Oc1ccn2ncnc2c1 (single isomer, unassigned) [Examples 99 and 100, first eluting isomer, (E)-1-(3-(4-((4-([1,2,4]triazolo[1,5-a]pyridin-7-yloxy)-3-methylphenyl)amino)pyrrolo[2,1-f][1,2,4]triazin-5-yl)pyrrolidin-1-yl)-4-(dimethylamino)but-2-en-1-one]
4 |  |  |  | 1500 to 5000 nM | 500 to 1500 nM | 1500 to 5000 nM | C=CC(=O)N1CC2CCC1CC2c1ccn2ncnc(Nc3ccc(Oc4ccn5ncnc5c4)c(C)c3)c12 (single isomer, unassigned) [Examples 139 and 140, second eluting isomer, 1-(5-(4-((4-([1,2,4]triazolo[1,5-a]pyridin-7-yloxy)-3-methylphenyl)amino)pyrrolo[2,1-f][1,2,4]triazin-5-yl)-2-azabicyclo[2.2.2]octan-2-yl)prop-2-en-1-one]
5 | < 200 nM | < 200 nM | 1500 to 5000 nM |  |  |  | Cc1cc(Nc2ncnn3ccc(C4CCN(C(=O)/C=C/CN(C)C)CC4(F)F)c23)ccc1Oc1ccn2ncnc2c1 (stereo not drawn) [Example 176, (E)-1-(4-(4-((4-([1,2,4]triazolo[1,5-a]pyridin-7-yloxy)-3-methylphenyl)amino)pyrrolo[2,1-f][1,2,4]triazin-5-yl)-3,3-difluoropiperidin-1-yl)-4-(dimethylamino)but-2-en-1-one]
6 |  |  |  | < 200 nM | < 200 nM | 1500 to 5000 nM | C=C(CN(C)C)C(=O)N1CCCC(c2ccn3ncnc(Nc4ccc(Oc5ccn6ncnc6c5)c(C)c4)c23)CC1 (single isomer, unassigned) [Examples 143 and 144, second eluting isomer, 1-(4-(4-((4-([1,2,4]triazolo[1,5-a]pyridin-7-yloxy)-3-methylphenyl)amino)pyrrolo[2,1-f][1,2,4]triazin-5-yl)azepan-1-yl)-2-((dimethylamino)methyl)prop-2-en-1-one]
7 | 500 to 1500 nM | < 200 nM | 1500 to 5000 nM |  |  |  | Cc1cc(Nc2ncnn3ccc(N4CCC(N(C)C(=O)/C=C/CN(C)C)CC4)c23)ccc1Oc1ccn2ncnc2c1 [Example 73, (E)-N-(1-(4-((4-([1,2,4]triazolo[1,5-a]pyridin-7-yloxy)-3-methylphenyl)amino)pyrrolo[2,1-f][1,2,4]triazin-5-yl)piperidin-4-yl)-4-(dimethylamino)-N-methylbut-2-enamide]
8 | > 5000 nM | 1500 to 5000 nM | > 5000 nM |  |  |  | Cc1cc(Nc2ncnn3ccc(C(=O)NCCCN(C)C)c23)ccc1N [Example 181, 4-((4-amino-3-methylphenyl)amino)-N-(3-(dimethylamino)propyl)pyrrolo[2,1-f][1,2,4]triazine-5-carboxamide]
9 |  |  |  | 500 to 1500 nM | < 200 nM | 1500 to 5000 nM | Cc1cc(Nc2ncnn3ccc(C4CCN(C(=O)/C=C/CN(C)C)C4)c23)ccc1Oc1ccn2ncnc2c1 (single isomer, unassigned) [Examples 99 and 100, second eluting isomer, (E)-1-(3-(4-((4-([1,2,4]triazolo[1,5-a]pyridin-7-yloxy)-3-methylphenyl)amino)pyrrolo[2,1-f][1,2,4]triazin-5-yl)pyrrolidin-1-yl)-4-(dimethylamino)but-2-en-1-one]
10 | < 200 nM | < 200 nM | 1500 to 5000 nM |  |  |  | CO[C@H]1CN(C/C=C/C(=O)N2CC(c3ccn4ncnc(Nc5ccc(Oc6ccc7c(c6)ncn7C)c(C)c5)c34)C2)C[C@H]1OC [Example 165, (E)-4-((3R,4S)-3,4-dimethoxypyrrolidin-1-yl)-1-(3-(4-((3-methyl-4-((1-methyl-1H-benzo[d]imidazol-5-yl)oxy)phenyl)amino)pyrrolo[2,1-f][1,2,4]triazin-5-yl)azetidin-1-yl)but-2-en-1-one]
11 | < 200 nM | < 200 nM | 500 to 1500 nM |  |  |  | C=C(CN(C)C)C(=O)N1CC(c2ccn3ncnc(Nc4ccc(Oc5ccc6c(c5)ncn6C)c(C)c4)c23)C1 [Example 67, 2-((dimethylamino)methyl)-1-(3-(4-((3-methyl-4-((1-methyl-1H-benzo[d]imidazol-5-yl)oxy)phenyl)amino)pyrrolo[2,1-f][1,2,4]triazin-5-yl)azetidin-1-yl)prop-2-en-1-one]
12 | < 200 nM | < 200 nM | 1500 to 5000 nM |  |  |  | Cc1cc(Nc2ncnn3ccc(C4CCN(C(=O)[C@@H](F)Cl)CC4)c23)ccc1Oc1ccn2ncnc2c1 (single isomer, unassigned) [Examples 173 and 174, second eluting isomer]

Second part, the compound before the results:

Row | SMILES | IC50 (BaF3_HER2YVMA cells; 72 h) | IC50 (BaF3_HER2WT cells; 72 h) | IC50 (BaF3_EGFRWT cells; 72 h) | IC50 (BaF3_HER2YVMA cells) | IC50 (BaF3_HER2WT cells) | IC50 (BaF3_EGFRWT cells)
13 | Cc1cc(Nc2ncnn3ccc(C4CN(C(=O)/C=C/CC(C)C)C4)c23)ccc1Oc1ccn2ncnc2c1 [Example 43, (E)-1-(3-(4-((4-([1,2,4]triazolo[1,5-a]pyridin-7-yloxy)-3-methylphenyl)amino)pyrrolo[2,1-f][1,2,4]triazin-5-yl)azetidin-1-yl)-5-methylhex-2-en-1-one] | 200 to 500 nM | < 200 nM | 1500 to 5000 nM |  |  | 
14 | Cc1cc(Nc2ncnn3ccc(C4CCN(C(=O)C5CC(=O)N5)CC4)c23)ccc1Oc1ccn2ncnc2c1 (stereo not drawn) [Example 36, 4-(4-(4-((4-([1,2,4]triazolo[1,5-a]pyridin-7-yloxy)-3-methylphenyl)amino)pyrrolo[2,1-f][1,2,4]triazin-5-yl)piperidine-1-carbonyl)azetidin-2-one acetate] | 1500 to 5000 nM | 1500 to 5000 nM | 1500 to 5000 nM |  |  | 
15 | C=CC(=O)N(C)C1CCN(c2ccn3ncnc(Nc4ccc(Oc5ccn6ncnc6c5)c(C)c4)c23)C1 (stereo not drawn) [Example 72, N-(1-(4-((4-([1,2,4]triazolo[1,5-a]pyridin-7-yloxy)-3-methylphenyl)amino)pyrrolo[2,1-f][1,2,4]triazin-5-yl)pyrrolidin-3-yl)-N-methylacrylamide] | < 200 nM | < 200 nM | 1500 to 5000 nM |  |  | 
16 | Cc1cc(Nc2ncnn3ccc(C4CCN(C(=O)/C=C/C5CCCN5C)CC4)c23)ccc1Oc1ccn2ncnc2c1 (stereo not drawn) [Example 65, (E)-1-(4-(4-((4-([1,2,4]triazolo[1,5-a]pyridin-7-yloxy)-3-methylphenyl)amino)pyrrolo[2,1-f][1,2,4]triazin-5-yl)piperidin-1-yl)-3-(1-methylpyrrolidin-2-yl)prop-2-en-1-one] | < 200 nM | < 200 nM | 1500 to 5000 nM |  |  | 
17 | COC1CCN(C/C=C/C(=O)N2CC(c3ccn4ncnc(Nc5ccc(Oc6ccn7ncnc7c6)c(C)c5)c34)C2)C1 (stereo not drawn) [Example 41, (E)-1-(3-(4-((4-([1,2,4]triazolo[1,5-a]pyridin-7-yloxy)-3-methylphenyl)amino)pyrrolo[2,1-f][1,2,4]triazin-5-yl)azetidin-1-yl)-4-(3-methoxypyrrolidin-1-yl)but-2-en-1-one] | < 200 nM | < 200 nM | 1500 to 5000 nM |  |  | 
18 | Cc1cc(Nc2ncnn3ccc(C4(O)CN(C(=O)/C=C/CN(C)C)C4)c23)ccc1Oc1ccn2ncnc2c1 [Example 51, (E)-1-(3-(4-((4-([1,2,4]triazolo[1,5-a]pyridin-7-yloxy)-3-methylphenyl)amino)pyrrolo[2,1-f][1,2,4]triazin-5-yl)-3-hydroxyazetidin-1-yl)-4-(dimethylamino)but-2-en-1-one] | < 200 nM | < 200 nM | 1500 to 5000 nM |  |  | 
19 | Cc1cc(Nc2ncnn3ccc(C4=CCN(C(=O)/C=C/CN(C)C)C4)c23)ccc1Oc1ccn2ncnc2c1 [Example 29, (E)-1-(3-(4-((4-([1,2,4]triazolo[1,5-a]pyridin-7-yloxy)-3-methylphenyl)amino)pyrrolo[2,1-f][1,2,4]triazin-5-yl)-2,5-dihydro-1H-pyrrol-1-yl)-4-(dimethylamino)but-2-en-1-one acetate] | 1500 to 5000 nM | < 200 nM | 1500 to 5000 nM |  |  | 
20 | C=C(CN(C)C)C(=O)N1C2CCC1CN(c1ccn3ncnc(Nc4ccc(Oc5ccn6ncnc6c5)c(C)c4)c13)C2 [Example 48, 1-(3-(4-((4-([1,2,4]triazolo[1,5-a]pyridin-7-yloxy)-3-methylphenyl)amino)pyrrolo[2,1-f][1,2,4]triazin-5-yl)-3,8-diazabicyclo[3.2.1]octan-8-yl)-2-((dimethylamino)methyl)prop-2-en-1-one] | 1500 to 5000 nM | 200 to 500 nM | 1500 to 5000 nM |  |  | 
21 | COC/C=C/C(=O)N1CCC(c2ccn3ncnc(Nc4ccc(Oc5ccn6ncnc6c5)c(C)c4)c23)CC1 [Example 58, (E)-1-(4-(4-((4-([1,2,4]triazolo[1,5-a]pyridin-7-yloxy)-3-methylphenyl)amino)pyrrolo[2,1-f][1,2,4]triazin-5-yl)piperidin-1-yl)-4-methoxybut-2-en-1-one] | 500 to 1500 nM | < 200 nM | 1500 to 5000 nM |  |  | 
